Experimental data as given in patent US5789431A, “Naphthoquinone antitumor compound and method” (The University of North Carolina at Chapel Hill, priority 1996, dated 1998).

What was measured:
[1] = test system: DMS 114; experiment: in vitro small cell lung cancer cell growth inhibition (NCI screen); assay type: cell-based, human; conditions: for GI50: Homo sapiens, read-out: cytotoxicity log GI50 (converted)
[2] = test system: DMS 273; experiment: as above; assay type: cell-based; conditions: Homo sapiens, read-out: cytotoxicity log GI50 (converted)

O=C(Cc1ccccc1F)NC1=C(Cl)C(=O)c2ccccc2C1=O [Compound 2i, 2-(2-Fluorophenyl)acetamido-3-chloro-1,4-naphthoguinone]
GI50 [1]: 0.174 µM

NC1=C(NC(=O)Cc2ccc(F)cc2)C(=O)c2ccccc2C1=O [Compound 3c]
GI50 [2]: 33.9 µM

O=C1c2ccccc2C(=O)c2[nH]c(Cc3ccccc3F)nc21 [Compound 4b]
GI50 [1]: 33.9 µM | GI50 [2]: 34.7 µM

CCn1c(C)nc2c1C(=O)c1ccccc1C2=O [Compound 5, 1-ethyl-2-methylnaphth-[2,3-d]imidazole-4,9-dione]
cytotoxicity log GI50 [1]: -6.56 M | GI50 [1]: 0.275 µM | GI50 [2]: 1.66 µM

CCC(C)n1c(C)nc2c1C(=O)c1ccccc1C2=O (centres unmarked) [Compound 6]
GI50 [2]: 33.9 µM

Cc1nc2c(n1CC(C)C)C(=O)c1ccccc1C2=O [Compound 7]
GI50 [2]: 26.9 µM

Cc1nc2c(n1C(C)(C)C)C(=O)c1ccccc1C2=O [Compound 8]
GI50 [2]: 52.5 µM

CCCC(C)n1c(C)nc2c1C(=O)c1ccccc1C2=O (centres unmarked) [Compound 9]
GI50 [2]: 7.24 µM

CCC(CC)n1c(C)nc2c1C(=O)c1ccccc1C2=O [Compound 10]
GI50 [2]: 22.9 µM

Cc1nc2c(n1CCC(C)C)C(=O)c1ccccc1C2=O [Compound 11]
GI50 [2]: 11 µM

CCC(C)(C)n1c(C)nc2c1C(=O)c1ccccc1C2=O [Compound 12]
GI50 [2]: 11.7 µM

CCC(C)Cn1c(C)nc2c1C(=O)c1ccccc1C2=O (centres unmarked) [Compound 13]
GI50 [2]: 9.77 µM

Cc1nc2c(n1CCO)C(=O)c1ccccc1C2=O [Compound 16]
GI50 [2]: 20 µM

Cc1ccc(Cn2c(C)nc3c2C(=O)c2ccccc2C3=O)cc1 [Compound 17]
GI50 [2]: 1.07 µM

COc1ccc(Cn2c(C)nc3c2C(=O)c2ccccc2C3=O)cc1 [Compound 18]
GI50 [2]: 3.31 µM

Cc1nc2c(n1Cc1ccc(F)cc1)C(=O)c1ccccc1C2=O [Compound 19]
GI50 [2]: 6.46 µM

Cc1nc2c(n1Cc1ccc(Cl)cc1)C(=O)c1ccccc1C2=O [Compound 20]
GI50 [2]: 2.63 µM

CCC(C)NC1=C(NC(C)=O)C(=O)c2ccccc2C1=O (centres unmarked) [Compound 30]
GI50 [1]: 28.2 µM | GI50 [2]: 27.5 µM

CC(=O)NC1=C(NCC(C)C)C(=O)c2ccccc2C1=O [Compound 31]
GI50 [1]: 14.8 µM | GI50 [2]: 14.5 µM

CC(=O)NC1=C(NCCN(C)C)C(=O)c2ccccc2C1=O [Compound 39]
GI50 [2]: 11.7 µM

CCn1c(Cc2ccc(F)cc2)nc2c1C(=O)c1ccccc1C2=O [Compound 66]
GI50 [2]: 9.77 µM
